Assay results as given in ChEMBL document CHEMBL3588744, “Structure-Based Optimization of Naphthyridones into Potent ATAD2 Bromodomain Inhibitors” (J Med Chem, 2015).

Legend:
[1] = Permeability across phosphatidyl choline membrane at pH 7.4 after 3 hrs by HPLC with UV detection method; format: ADME; details: not told, read-out: permeability
[2] = biological target: T1, Bromodomain-containing protein 4 (Homo sapiens, UniProt O60885); test: Binding affinity to BRD4 BD1 (unknown origin) by BROMOscan panel based assay
[3] = biological target: T2, Transcription initiation factor TFIID subunit 1 (Homo sapiens, UniProt P21675); test: Binding affinity to TAF1 (unknown origin) by BROMOscan panel based assay
T2 sequence (P21675 whole entry): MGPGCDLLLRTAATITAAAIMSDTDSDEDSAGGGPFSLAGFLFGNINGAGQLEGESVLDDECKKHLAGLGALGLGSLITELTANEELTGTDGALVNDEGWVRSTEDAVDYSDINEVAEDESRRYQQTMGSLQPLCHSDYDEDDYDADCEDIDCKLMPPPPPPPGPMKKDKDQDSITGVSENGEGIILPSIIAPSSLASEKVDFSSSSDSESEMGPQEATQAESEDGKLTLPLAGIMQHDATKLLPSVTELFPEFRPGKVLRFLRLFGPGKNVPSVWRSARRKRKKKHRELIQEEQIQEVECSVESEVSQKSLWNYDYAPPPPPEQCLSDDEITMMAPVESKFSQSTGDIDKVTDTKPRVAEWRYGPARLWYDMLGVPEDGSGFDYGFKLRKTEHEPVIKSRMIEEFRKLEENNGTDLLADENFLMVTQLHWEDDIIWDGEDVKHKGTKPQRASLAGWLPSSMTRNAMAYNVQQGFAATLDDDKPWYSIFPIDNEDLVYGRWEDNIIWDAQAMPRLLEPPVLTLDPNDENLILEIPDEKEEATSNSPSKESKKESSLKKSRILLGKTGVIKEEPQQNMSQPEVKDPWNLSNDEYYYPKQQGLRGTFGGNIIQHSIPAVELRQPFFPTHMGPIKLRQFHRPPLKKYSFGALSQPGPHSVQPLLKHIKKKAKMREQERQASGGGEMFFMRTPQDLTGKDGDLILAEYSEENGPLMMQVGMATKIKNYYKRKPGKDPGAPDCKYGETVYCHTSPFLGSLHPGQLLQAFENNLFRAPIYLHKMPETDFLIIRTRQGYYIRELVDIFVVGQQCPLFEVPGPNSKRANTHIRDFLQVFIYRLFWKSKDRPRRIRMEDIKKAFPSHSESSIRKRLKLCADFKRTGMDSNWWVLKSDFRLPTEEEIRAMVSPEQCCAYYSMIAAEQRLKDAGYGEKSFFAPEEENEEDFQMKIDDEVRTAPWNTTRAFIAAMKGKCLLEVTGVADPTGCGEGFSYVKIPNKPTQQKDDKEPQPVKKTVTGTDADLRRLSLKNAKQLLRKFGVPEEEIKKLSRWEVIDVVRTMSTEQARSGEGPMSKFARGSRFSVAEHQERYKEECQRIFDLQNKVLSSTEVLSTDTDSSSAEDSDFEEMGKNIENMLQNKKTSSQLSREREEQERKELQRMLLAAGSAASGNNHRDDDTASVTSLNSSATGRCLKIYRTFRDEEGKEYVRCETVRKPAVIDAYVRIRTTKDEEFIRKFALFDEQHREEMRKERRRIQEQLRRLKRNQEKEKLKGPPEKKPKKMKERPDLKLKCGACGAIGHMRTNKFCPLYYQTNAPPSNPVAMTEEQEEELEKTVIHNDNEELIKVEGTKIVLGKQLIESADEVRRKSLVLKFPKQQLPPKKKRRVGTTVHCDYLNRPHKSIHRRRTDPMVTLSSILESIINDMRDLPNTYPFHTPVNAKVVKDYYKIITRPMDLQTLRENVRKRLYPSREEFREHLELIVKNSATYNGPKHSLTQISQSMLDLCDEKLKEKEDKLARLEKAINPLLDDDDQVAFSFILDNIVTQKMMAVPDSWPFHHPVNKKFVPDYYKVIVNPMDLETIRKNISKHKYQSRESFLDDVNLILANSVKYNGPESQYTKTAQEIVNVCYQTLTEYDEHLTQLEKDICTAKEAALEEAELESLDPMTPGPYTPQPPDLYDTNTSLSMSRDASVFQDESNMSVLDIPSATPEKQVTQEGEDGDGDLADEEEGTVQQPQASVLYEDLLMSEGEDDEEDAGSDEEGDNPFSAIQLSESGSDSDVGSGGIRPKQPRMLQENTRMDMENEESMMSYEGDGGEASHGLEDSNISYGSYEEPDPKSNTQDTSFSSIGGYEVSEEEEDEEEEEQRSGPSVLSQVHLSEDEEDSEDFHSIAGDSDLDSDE

[4] = biological target: Bromodomain-containing protein 1 (Homo sapiens, UniProt O95696); test: Binding affinity to BRPF2 (unknown origin) by BROMOscan panel based assay
[5] = biological target: Bromodomain and PHD finger-containing protein 3 (Homo sapiens, UniProt Q9ULD4); test: Binding affinity to BRPF3 (unknown origin) by BROMOscan panel based assay
[6] = biological target: ATPase family AAA domain-containing protein 2B (Homo sapiens, UniProt Q9ULI0); test: Binding affinity to ATAD2B in human HUT78 cells incubated for 45 mins by mass spectrometry based bromosphere chemoproteomic assay; format: cell-based
[7] = biological target: Tyrosine-protein kinase BAZ1B (Homo sapiens, UniProt Q9UIG0); test: Binding affinity to BAZ1B in human HUT78 cells incubated for 45 mins by mass spectrometry based bromosphere chemoproteomic assay; format: cell-based
[8] = biological target: Bromodomain adjacent to zinc finger domain protein 2A (Homo sapiens, UniProt Q9UIF9); test: Binding affinity to BAZ2A in human HUT78 cells incubated for 45 mins by mass spectrometry based bromosphere chemoproteomic assay; format: cell-based
Sequence of Bromodomain adjacent to zinc finger domain protein 2A (Q9UIF9 whole entry, the tested form may be a part): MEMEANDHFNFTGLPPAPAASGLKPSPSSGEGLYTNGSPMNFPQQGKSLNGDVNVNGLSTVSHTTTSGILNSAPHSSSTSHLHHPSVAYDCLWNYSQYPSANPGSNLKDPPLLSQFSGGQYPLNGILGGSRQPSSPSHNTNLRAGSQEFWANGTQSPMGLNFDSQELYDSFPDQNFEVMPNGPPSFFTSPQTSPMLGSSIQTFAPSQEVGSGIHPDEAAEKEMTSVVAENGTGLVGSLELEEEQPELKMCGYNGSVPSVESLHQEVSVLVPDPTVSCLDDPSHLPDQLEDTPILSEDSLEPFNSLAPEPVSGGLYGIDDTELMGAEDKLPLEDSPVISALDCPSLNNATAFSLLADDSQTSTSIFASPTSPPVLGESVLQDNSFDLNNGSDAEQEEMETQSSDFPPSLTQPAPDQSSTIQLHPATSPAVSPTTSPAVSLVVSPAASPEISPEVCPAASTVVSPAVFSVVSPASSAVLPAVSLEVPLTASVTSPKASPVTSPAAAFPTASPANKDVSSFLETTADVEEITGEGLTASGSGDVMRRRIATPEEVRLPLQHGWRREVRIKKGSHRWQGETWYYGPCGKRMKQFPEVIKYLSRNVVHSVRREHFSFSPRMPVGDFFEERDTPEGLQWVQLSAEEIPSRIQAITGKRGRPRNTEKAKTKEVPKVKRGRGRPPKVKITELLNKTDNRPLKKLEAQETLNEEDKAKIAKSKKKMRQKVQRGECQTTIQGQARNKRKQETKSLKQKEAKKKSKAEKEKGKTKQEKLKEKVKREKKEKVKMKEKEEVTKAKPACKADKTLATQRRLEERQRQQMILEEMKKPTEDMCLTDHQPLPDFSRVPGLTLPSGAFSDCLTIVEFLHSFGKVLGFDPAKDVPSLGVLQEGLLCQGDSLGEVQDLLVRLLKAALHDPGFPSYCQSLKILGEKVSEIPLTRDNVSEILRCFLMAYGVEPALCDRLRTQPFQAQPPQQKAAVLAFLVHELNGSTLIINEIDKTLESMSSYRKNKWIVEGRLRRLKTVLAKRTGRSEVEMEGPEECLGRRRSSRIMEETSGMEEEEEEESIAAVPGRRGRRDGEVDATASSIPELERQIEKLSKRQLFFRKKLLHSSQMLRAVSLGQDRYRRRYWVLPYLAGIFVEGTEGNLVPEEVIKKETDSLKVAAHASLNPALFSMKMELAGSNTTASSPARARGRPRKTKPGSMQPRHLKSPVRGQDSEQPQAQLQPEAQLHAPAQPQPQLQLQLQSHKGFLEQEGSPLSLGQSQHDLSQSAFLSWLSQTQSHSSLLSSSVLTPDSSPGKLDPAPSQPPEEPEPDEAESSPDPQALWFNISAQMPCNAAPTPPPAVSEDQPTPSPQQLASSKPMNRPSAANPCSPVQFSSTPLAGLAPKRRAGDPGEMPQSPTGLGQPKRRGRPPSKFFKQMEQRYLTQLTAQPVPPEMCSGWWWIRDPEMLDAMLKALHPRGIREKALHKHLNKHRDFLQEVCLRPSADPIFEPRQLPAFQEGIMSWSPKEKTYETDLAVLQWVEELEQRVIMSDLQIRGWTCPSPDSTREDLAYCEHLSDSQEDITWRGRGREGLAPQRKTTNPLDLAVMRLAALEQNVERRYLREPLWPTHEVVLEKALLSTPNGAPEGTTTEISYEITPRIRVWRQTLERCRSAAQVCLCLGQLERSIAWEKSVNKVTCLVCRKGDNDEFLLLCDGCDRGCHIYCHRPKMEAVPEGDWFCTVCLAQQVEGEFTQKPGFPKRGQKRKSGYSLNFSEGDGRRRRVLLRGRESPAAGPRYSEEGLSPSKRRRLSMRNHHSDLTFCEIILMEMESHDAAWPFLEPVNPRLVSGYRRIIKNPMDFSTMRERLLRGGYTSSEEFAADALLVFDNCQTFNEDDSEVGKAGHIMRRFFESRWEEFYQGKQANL

[9] = biological target: Nucleosome-remodeling factor subunit BPTF (Homo sapiens, UniProt Q12830); test: Binding affinity to BPTF in human HUT78 cells incubated for 45 mins by mass spectrometry based bromosphere chemoproteomic assay; format: cell-based
[10] = biological target: Bromodomain-containing protein 3 (Homo sapiens, UniProt Q15059); test: Binding affinity to BRD3 in human HUT78 cells incubated for 45 mins by mass spectrometry based bromosphere chemoproteomic assay; format: cell-based
[11] = biological target: Bromodomain-containing protein 7 (Homo sapiens, UniProt Q9NPI1); test: Binding affinity to BRD7 in human HUT78 cells incubated for 45 mins by mass spectrometry based bromosphere chemoproteomic assay; format: cell-based
[12] = biological target: T3, Peregrin (Homo sapiens, UniProt P55201); test: Binding affinity to BRPF1 in human HUT78 cells incubated for 45 mins by mass spectrometry based bromosphere chemoproteomic assay; format: cell-based
T3 sequence (P55201 whole entry): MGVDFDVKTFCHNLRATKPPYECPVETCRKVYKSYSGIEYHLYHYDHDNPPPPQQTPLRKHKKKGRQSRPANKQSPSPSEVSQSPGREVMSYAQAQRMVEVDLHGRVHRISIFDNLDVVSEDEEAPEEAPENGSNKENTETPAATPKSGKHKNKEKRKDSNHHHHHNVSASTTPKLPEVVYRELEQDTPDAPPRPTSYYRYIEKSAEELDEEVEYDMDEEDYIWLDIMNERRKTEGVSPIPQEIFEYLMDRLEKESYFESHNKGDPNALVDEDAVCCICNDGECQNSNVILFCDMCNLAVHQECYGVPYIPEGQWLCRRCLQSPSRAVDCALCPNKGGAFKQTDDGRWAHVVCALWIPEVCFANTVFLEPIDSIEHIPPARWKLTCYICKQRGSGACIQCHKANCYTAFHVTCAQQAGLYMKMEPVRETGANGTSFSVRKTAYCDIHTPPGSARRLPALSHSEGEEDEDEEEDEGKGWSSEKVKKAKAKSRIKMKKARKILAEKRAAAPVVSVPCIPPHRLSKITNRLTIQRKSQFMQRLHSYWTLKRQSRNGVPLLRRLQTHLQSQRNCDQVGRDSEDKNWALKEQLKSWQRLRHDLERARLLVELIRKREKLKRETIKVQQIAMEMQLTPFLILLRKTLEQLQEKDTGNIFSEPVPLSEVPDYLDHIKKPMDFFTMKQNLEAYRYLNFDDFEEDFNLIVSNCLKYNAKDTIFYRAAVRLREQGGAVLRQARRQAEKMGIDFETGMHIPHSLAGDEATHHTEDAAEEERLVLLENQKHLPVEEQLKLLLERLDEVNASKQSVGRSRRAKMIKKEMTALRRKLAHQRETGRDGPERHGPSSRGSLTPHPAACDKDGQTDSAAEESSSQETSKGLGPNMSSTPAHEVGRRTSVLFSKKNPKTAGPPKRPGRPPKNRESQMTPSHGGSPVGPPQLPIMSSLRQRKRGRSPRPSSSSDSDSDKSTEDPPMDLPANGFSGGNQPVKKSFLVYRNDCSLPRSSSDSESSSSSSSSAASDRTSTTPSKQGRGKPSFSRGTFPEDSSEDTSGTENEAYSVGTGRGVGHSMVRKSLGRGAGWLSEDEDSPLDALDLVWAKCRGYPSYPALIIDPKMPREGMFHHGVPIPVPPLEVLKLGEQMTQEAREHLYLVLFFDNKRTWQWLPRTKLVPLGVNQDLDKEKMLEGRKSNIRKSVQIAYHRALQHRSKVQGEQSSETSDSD

[13] = biological target: T2, Transcription initiation factor TFIID subunit 1; test: Binding affinity to TAF1 in human HUT78 cells incubated for 45 mins by mass spectrometry based bromosphere chemoproteomic assay; format: cell-based
[14] = biological target: Bromodomain-containing protein 2 (Homo sapiens, UniProt P25440); test: Binding affinity to BRD2 containing BD1 bromodomains (unknown origin) by TR-FRET assay
Sequence of Bromodomain-containing protein 2 (P25440 whole entry): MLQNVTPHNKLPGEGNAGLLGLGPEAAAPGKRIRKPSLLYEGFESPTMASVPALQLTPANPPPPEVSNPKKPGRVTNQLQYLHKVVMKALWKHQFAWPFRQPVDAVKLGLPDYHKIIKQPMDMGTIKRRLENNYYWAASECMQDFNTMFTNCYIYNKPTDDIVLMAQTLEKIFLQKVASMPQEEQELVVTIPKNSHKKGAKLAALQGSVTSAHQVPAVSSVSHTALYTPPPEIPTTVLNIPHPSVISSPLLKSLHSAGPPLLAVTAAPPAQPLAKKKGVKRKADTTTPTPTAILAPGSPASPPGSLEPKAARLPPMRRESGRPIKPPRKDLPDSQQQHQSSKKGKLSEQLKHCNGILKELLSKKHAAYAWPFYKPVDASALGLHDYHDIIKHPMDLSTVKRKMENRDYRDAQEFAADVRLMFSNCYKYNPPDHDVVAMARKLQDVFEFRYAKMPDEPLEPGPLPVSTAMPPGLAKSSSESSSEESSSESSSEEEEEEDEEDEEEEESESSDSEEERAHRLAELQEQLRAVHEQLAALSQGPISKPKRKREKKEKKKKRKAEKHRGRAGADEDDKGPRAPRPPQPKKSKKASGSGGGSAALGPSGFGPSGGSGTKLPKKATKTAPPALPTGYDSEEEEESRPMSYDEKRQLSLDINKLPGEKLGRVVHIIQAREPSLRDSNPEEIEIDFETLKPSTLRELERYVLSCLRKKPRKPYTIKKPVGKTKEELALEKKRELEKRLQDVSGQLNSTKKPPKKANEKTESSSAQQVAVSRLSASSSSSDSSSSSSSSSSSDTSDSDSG

[15] = biological target: T4, Bromodomain testis-specific protein (Homo sapiens, UniProt Q58F21); test: Binding affinity to BRDt containing BD1 bromodomains (unknown origin) by TR-FRET assay
[16] = biological target: T1, Bromodomain-containing protein 4; test: Binding affinity to BRD4 containing BD2 bromodomains (unknown origin) by TR-FRET assay
[17] = biological target: T4, Bromodomain testis-specific protein; test: Binding affinity to BRDt containing BD2 bromodomains (unknown origin) by TR-FRET assay

## Cc1cncc(-c2cnc(N[C@@H]3CCN(C)C[C@H]3OCC3CCS(=O)(=O)CC3)c3[nH]c(=O)c(C)cc23)c1
[1]
  Papp at 3 h: < 1 ×10⁻⁶ cm/s
[2]
  Ki: 7.94 µM
[3]
  Ki: 0.0501 µM
[4]
  Ki: 0.398 µM
[5]
  Ki: 0.794 µM
[6]
  Kd: 0.1 µM
[7]
  Kd: > 100 µM
[8]
  Kd: > 100 µM
[9]
  Kd: > 100 µM
[10]
  Kd: > 100 µM
[11]
  Kd: 31.6 µM
[12]
  Kd: > 100 µM
[13]
  Kd: 1.26 µM
[14]
  IC50: > 50.1 µM
[15]
  IC50: > 50.1 µM
[16]
  IC50: > 501 µM
[17]
  IC50: > 50.1 µM
